Literature values in patent US12233110B2, “Compositions comprising pharmaceutically acceptable salts of glucagon-like peptide-1 analogs and uses thereof” (i20 Therapeutics, Inc., priority 2021, dated 2025).

Conditions: Reference Data

Row | pKa | SMILES
1 | approximately 6 | O=C(O)O [bicarbonate]
2 | approximately 14 | C[N+](C)(C)CCO [choline]
